Data on 3 compounds can be found in patent US10849916B2 (priority 2014, dated 2020).

A short description of this data set: Water (moisture) content by Karl Fischer method. It is filed as physicochemical. The following applies: for Water content tested by KF method: isolated impurity fraction from preparative HPLC. How it is done:
1. Water content: Water content was estimated by karl fischer (KF) method wherein suitable quantity of methanol was taken in the flask and titrated with karl fischer reagent to neutralize the methanol. Then weighed quantity of the sample is added to the flask and titrated to the end point.

Regarding `CCOCCN(CCCl)P1(=O)NCCCO1` (stereo not shown) [0.75 RRT, 2-((2-chloroethyl)(2-ethoxyethyl)amino)-1,3,2-oxazaphosphinane 2-oxide], the “Water content tested by KF method” value came out at 2.71 % by weight.
Turning to `O=P1(N(CCCl)CCCl)NCCCO1` (stereo not shown) [Cyclophosphamide, 2-[bis(2-chloroethyl)amino]tetrahydro-2H-1,3,2-oxazaphosphorine 2-oxide monohydrate], the “Water content in the vials” value (after drying under vacuum in lyophilizer) is “approximately 1%”. Moreover, for the setting “input drug substance, before drying”, the “Water content of the input cyclophosphamide monohydrate” value is on record as “*Water content of the input cyclophosphamide monohydrate is 6.25% w/w”.
In the case of `CCOP(=O)(O)OCCCN1CCNCC1` [0.21 RRT, ethyl (3-(piperazin-1-yl)propyl) hydrogen phosphate], the “Water content tested by KF method” value is listed as 2.69 % by weight.
